Measurements from ChEMBL document CHEMBL3046897, “Synthesis of 3-{4-[4-dimethylamino-6-(4-methyl-2-oxo-2H-chromen-7-yloxy)-[1,3,5]triazin-2-ylamino]-phenyl}-2-phenyl-5-(4-pyridin-2-yl-piperazin-1-ylmethyl)-thiazolidin-4-one and their biological evaluation” (2012).
Converted amounts (≈) assume the structure as drawn.

Tests used:
Type in all cases: functional
Aspergillus fumigatus [1] = test: Antifungal activity against Aspergillus fumigatus after 48 hr by agar streak dilution method
Salmonella typhi [2] = test: Antibacterial activity against Salmonella enterica subsp. enterica serovar Typhi after 24 hr by agar streak dilution method
Aspergillus clavatus [3] = test: Antifungal activity against Aspergillus clavatus at 100 ug/disc after 48 hr by paper disk diffusion method; details: read-out: IZ
Pseudomonas aeruginosa [4] = test: Antibacterial activity against Pseudomonas aeruginosa at 100 ug/disk after 24 hr by paper disk diffusion method; details: read-out: IZ
Bacillus subtilis [5] = test: Antibacterial activity against Bacillus subtilis at 100 ug/disk after 24 hr by paper disk diffusion method; details: read-out: IZ
Salmonella typhi [6] = test: Antibacterial activity against Salmonella enterica subsp. enterica serovar Typhi at 100 ug/disk after 24 hr by paper disk diffusion method; details: read-out: IZ
Klebsiella pneumoniae [7] = test: Antibacterial activity against Klebsiella pneumoniae at 100 ug/disk after 24 hr by paper disk diffusion method; details: read-out: IZ
Shigella flexneri [8] = test: Antibacterial activity against Shigella flexneri at 100 ug/disc after 24 hr by paper disk diffusion method; details: read-out: IZ
Staphylococcus aureus [9] = test: Antibacterial activity against Staphylococcus aureus after 24 hr by agar streak dilution method
Candida albicans [10] = test: Antifungal activity against Candida albicans at 100 ug/disk after 48 hr by paper disk diffusion method; details: read-out: IZ
Aspergillus fumigatus [11] = test: Antifungal activity against Aspergillus fumigatus at 100 ug/disc after 48 hr by paper disk diffusion method; details: read-out: IZ
Aspergillus niger [12] = test: Antifungal activity against Aspergillus niger after 48 hr by agar streak dilution method
Pseudomonas aeruginosa [13] = test: Antibacterial activity against Pseudomonas aeruginosa after 24 hr by agar streak dilution method
Candida albicans [14] = test: Antifungal activity against Candida albicans after 48 hr by agar streak dilution method
Bacillus subtilis [15] = test: Antibacterial activity against Bacillus subtilis after 24 hr by agar streak dilution method
Aspergillus clavatus [16] = test: Antifungal activity against Aspergillus clavatus after 48 hr by agar streak dilution method
Klebsiella pneumoniae [17] = test: Antibacterial activity against Klebsiella pneumoniae after 24 hr by agar streak dilution method
Escherichia coli [18] = test: Antibacterial activity against Escherichia coli at 100 ug/disk after 24 hr by paper disk diffusion method; details: read-out: IZ
Proteus vulgaris [19] = test: Antibacterial activity against Proteus vulgaris after 24 hr by agar streak dilution method
Shigella flexneri [20] = test: Antibacterial activity against Shigella flexneri after 24 hr by agar streak dilution method
Escherichia coli [21] = test: Antibacterial activity against Escherichia coli after 24 hr by agar streak dilution method
Aspergillus niger [22] = test: Antifungal activity against Aspergillus niger at 100 ug/disk after 48 hr by paper disk diffusion method; details: read-out: IZ
Staphylococcus aureus [23] = test: Antibacterial activity against Staphylococcus aureus at 100 ug/disc after 24 hr by paper disk diffusion method; details: read-out: IZ
Proteus vulgaris [24] = test: Antibacterial activity against Proteus vulgaris at 100 ug/disk after 24 hr by paper disk diffusion method; details: read-out: IZ

SMILES | MIC (Aspergillus fumigatus [1]) [µg/mL] | MIC (Salmonella typhi [2]) [µg/mL] | zone of inhibition at 100 µg/disc (Aspergillus clavatus [3]) [mm] | zone of inhibition at 100 µg/disc (Pseudomonas aeruginosa [4]) [mm] | zone of inhibition at 100 µg/disc (Bacillus subtilis [5]) [mm] | zone of inhibition at 100 µg/disc (Salmonella typhi [6]) [mm] | zone of inhibition at 100 µg/disc (Klebsiella pneumoniae [7]) [mm] | zone of inhibition at 100 µg/disc (Shigella flexneri [8]) [mm] | MIC (Staphylococcus aureus [9]) [µg/mL] | zone of inhibition at 100 µg/disc (Candida albicans [10]) [mm] | zone of inhibition at 100 µg/disc (Aspergillus fumigatus [11]) [mm] | MIC (Aspergillus niger [12]) [µg/mL] | MIC (Pseudomonas aeruginosa [13]) [µg/mL] | MIC (Candida albicans [14]) [µg/mL] | MIC (Bacillus subtilis [15]) [µg/mL] | MIC (Aspergillus clavatus [16]) [µg/mL] | MIC (Klebsiella pneumoniae [17]) [µg/mL] | zone of inhibition at 100 µg/disc (Escherichia coli [18]) [mm] | MIC (Proteus vulgaris [19]) [µg/mL] | MIC (Shigella flexneri [20]) [µg/mL] | other results
COc1ccc(C2SCC(=O)N2c2ccc(Nc3nc(Oc4ccc5c(C)cc(=O)oc5c4)nc(N(C)C)n3)cc2)cc1OC (stereo not drawn) | 100 (≈ 160 µM) | 100 (≈ 160 µM) | 13 | 12 | 14 | 14 | < 10 | 17 | 50 (≈ 79.8 µM) | < 10 | < 10 | 100 (≈ 160 µM) | 100 (≈ 160 µM) | 100 (≈ 160 µM) | 100 (≈ 160 µM) | 100 (≈ 160 µM) | 100 (≈ 160 µM) | 11 | 100 (≈ 160 µM) | 50 (≈ 79.8 µM) | MIC (Escherichia coli [21]): 100 µg/mL (≈ 160 µM); zone of inhibition at 100 µg/disc (Aspergillus niger [22]): 15 mm; zone of inhibition at 100 µg/disc (Staphylococcus aureus [23]): 17 mm; zone of inhibition at 100 µg/disc (Proteus vulgaris [24]): 12 mm
Cc1cc(=O)oc2cc(Oc3nc(Nc4ccc(N5C(=O)CSC5c5ccccc5Br)cc4)nc(N(C)C)n3)ccc12 (stereo not drawn) | 25 (≈ 38.7 µM) | 100 (≈ 155 µM) | 20 | 20 | 20 | 12 | 13 | 10 | 50 (≈ 77.5 µM) | 21 | 23 | 100 (≈ 155 µM) | 50 (≈ 77.5 µM) | 25 (≈ 38.7 µM) | 50 (≈ 77.5 µM) | 50 (≈ 77.5 µM) | 100 (≈ 155 µM) | 17 | 50 (≈ 77.5 µM) | 100 (≈ 155 µM) | MIC (Escherichia coli [21]): 100 µg/mL (≈ 155 µM); zone of inhibition at 100 µg/disc (Aspergillus niger [22]): 19 mm; zone of inhibition at 100 µg/disc (Staphylococcus aureus [23]): 17 mm; zone of inhibition at 100 µg/disc (Proteus vulgaris [24]): 16 mm
Cc1cc(=O)oc2cc(Oc3nc(Nc4ccc(N5C(=O)C(CN6CCN(c7ccccn7)CC6)SC5c5ccccc5C(=O)O)cc4)nc(N(C)C)n3)ccc12 (stereo not drawn) | 100 (≈ 127 µM) | 100 (≈ 127 µM) | 15 | 18 | 17 | 11 | 15 | 17 | 50 (≈ 63.6 µM) | < 10 | 13 | 100 (≈ 127 µM) | 50 (≈ 63.6 µM) | 100 (≈ 127 µM) | 50 (≈ 63.6 µM) | 100 (≈ 127 µM) | 100 (≈ 127 µM) | 13 | 100 (≈ 127 µM) | 100 (≈ 127 µM) | MIC (Escherichia coli [21]): 100 µg/mL (≈ 127 µM); zone of inhibition at 100 µg/disc (Aspergillus niger [22]): 15 mm; zone of inhibition at 100 µg/disc (Staphylococcus aureus [23]): 19 mm; zone of inhibition at 100 µg/disc (Proteus vulgaris [24]): 15 mm
Cc1cc(=O)oc2cc(Oc3nc(Nc4ccc(/N=C/c5ccc(Cl)cc5Cl)cc4)nc(N(C)C)n3)ccc12 | 100 (≈ 178 µM) | 100 (≈ 178 µM) | 17 | 12 | 17 | 14 | 17 | 14 | 100 (≈ 178 µM) | 12 | 13 | 100 (≈ 178 µM) | 100 (≈ 178 µM) | 100 (≈ 178 µM) | 50 (≈ 89.1 µM) | 50 (≈ 89.1 µM) | 50 (≈ 89.1 µM) | 13 | 50 (≈ 89.1 µM) | 100 (≈ 178 µM) | MIC (Escherichia coli [21]): 100 µg/mL (≈ 178 µM); zone of inhibition at 100 µg/disc (Aspergillus niger [22]): 11 mm; zone of inhibition at 100 µg/disc (Staphylococcus aureus [23]): 14 mm; zone of inhibition at 100 µg/disc (Proteus vulgaris [24]): 16 mm
Cc1cc(=O)oc2cc(Oc3nc(Nc4ccc(/N=C/c5ccc(F)cc5)cc4)nc(N(C)C)n3)ccc12 | 100 (≈ 196 µM) | 50 (≈ 97.9 µM) | 19 | 20 | 18 | 15 | < 10 | 14 | 25 (≈ 49 µM) | 21 | 14 | 50 (≈ 97.9 µM) | 50 (≈ 97.9 µM) | 25 (≈ 49 µM) | 50 (≈ 97.9 µM) | 50 (≈ 97.9 µM) | 100 (≈ 196 µM) | 16 | 50 (≈ 97.9 µM) | 100 (≈ 196 µM) | MIC (Escherichia coli [21]): 50 µg/mL (≈ 97.9 µM); zone of inhibition at 100 µg/disc (Aspergillus niger [22]): 20 mm; zone of inhibition at 100 µg/disc (Staphylococcus aureus [23]): 20 mm; zone of inhibition at 100 µg/disc (Proteus vulgaris [24]): 17 mm
Cc1cc(=O)oc2cc(Oc3nc(Nc4ccc(N5C(=O)C(CN6CCN(c7ccccn7)CC6)SC5c5ccc(O)cc5)cc4)nc(N(C)C)n3)ccc12 (stereo not drawn) | 6.25 (≈ 8.25 µM) | 6.25 (≈ 8.25 µM) | 21 | 23 | 25 | 27 | 19 | 22 | 6.25 (≈ 8.25 µM) | 23 | 25 | 6.25 (≈ 8.25 µM) | 12.5 (≈ 16.5 µM) | 12.5 (≈ 16.5 µM) | 6.25 (≈ 8.25 µM) | 25 (≈ 33 µM) | 25 (≈ 33 µM) | 30 | 12.5 (≈ 16.5 µM) | 25 (≈ 33 µM) | MIC (Escherichia coli [21]): 6.25 µg/mL (≈ 8.25 µM); zone of inhibition at 100 µg/disc (Aspergillus niger [22]): 27 mm; zone of inhibition at 100 µg/disc (Staphylococcus aureus [23]): 27 mm; zone of inhibition at 100 µg/disc (Proteus vulgaris [24]): 25 mm
Cc1cc(=O)oc2cc(Oc3nc(Nc4ccc(N5C(=O)C(CN6CCN(c7ccccn7)CC6)SC5c5ccccc5Br)cc4)nc(N(C)C)n3)ccc12 (stereo not drawn) | 6.25 (≈ 7.61 µM) | 100 (≈ 122 µM) | 23 | 22 | 22 | 14 | 17 | 15 | 50 (≈ 60.9 µM) | 25 | 27 | 25 (≈ 30.5 µM) | 25 (≈ 30.5 µM) | 12.5 (≈ 15.2 µM) | 25 (≈ 30.5 µM) | 12.5 (≈ 15.2 µM) | 50 (≈ 60.9 µM) | 20 | 50 (≈ 60.9 µM) | 100 (≈ 122 µM) | MIC (Escherichia coli [21]): 50 µg/mL (≈ 60.9 µM); zone of inhibition at 100 µg/disc (Aspergillus niger [22]): 25 mm; zone of inhibition at 100 µg/disc (Staphylococcus aureus [23]): 20 mm; zone of inhibition at 100 µg/disc (Proteus vulgaris [24]): 19 mm
